Selectivity ratio, inhibition and IC50 data for three compounds are collected here from ChEMBL document CHEMBL4184137, “Lysine Deacetylase Inhibitors in Parasites: Past, Present, and Future Perspectives” (J Med Chem, 2017).

Some results are limits rather than exact numbers.

The nature of data set [1]: Selectivity index, ratio of IC50 for HEK293 cells to IC50 for Plasmodium falciparum. To be noted: human, read-out: Ratio IC50. The format is toxicity.
The target of data set [2] is T1, Histone deacetylase (Plasmodium falciparum) (UniProt Q9XYC7).
T1 sequence (whole entry): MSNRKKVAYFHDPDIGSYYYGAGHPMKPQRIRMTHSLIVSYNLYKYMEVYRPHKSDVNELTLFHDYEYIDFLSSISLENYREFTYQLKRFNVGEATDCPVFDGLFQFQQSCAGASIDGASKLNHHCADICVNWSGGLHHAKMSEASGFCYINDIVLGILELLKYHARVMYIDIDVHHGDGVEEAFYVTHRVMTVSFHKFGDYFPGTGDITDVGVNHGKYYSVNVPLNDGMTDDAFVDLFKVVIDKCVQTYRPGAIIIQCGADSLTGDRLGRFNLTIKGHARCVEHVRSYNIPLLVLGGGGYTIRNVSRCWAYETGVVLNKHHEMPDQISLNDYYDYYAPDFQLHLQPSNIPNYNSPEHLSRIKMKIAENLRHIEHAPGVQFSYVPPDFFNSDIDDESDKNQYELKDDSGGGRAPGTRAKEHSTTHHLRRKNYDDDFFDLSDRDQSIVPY
Briefly: Inhibition of recombinant HDAC1 in recombinant Plasmodium falciparum at 1 uM using Ac-RGK(Ac)-AMC fluorogenic peptide as substrate preincubated for 1 hr followed by substrate addition measured after 10 min by fluorescence assay.

Data set [3] is described as follows: Selectivity index, ratio of IC50 for human NFF cells to IC50 for Plasmodium falciparum. The format is toxicity. The conditions noted are these: read-out: Ratio IC50.
The nature of data set [4]: Selectivity index, ratio of IC50 for human NFF cells to IC50 for Trypanosoma brucei brucei. The format is toxicity. To be noted: read-out: Selectivity Index.
For a further data set, the target named is T2, Histone deacetylase (Plasmodium falciparum, UniProt Q9XYC7).
T2 sequence (Q9XYC7 whole entry): T1 sequence (whole entry)
Briefly: Inhibition of HDAC1 in Plasmodium falciparum 3D7 nuclear extract using Ac-RGK(Ac)-AMC fluorogenic peptide as substrate preincubated for 1 hr followed by substrate addition measured after 10 min by fluorescence assay.

A short description of data set [5]: Selectivity index, ratio of IC50 for HEK293 cells to IC50 for Trypanosoma brucei brucei. The format is toxicity. To be noted: human, read-out: Selectivity Index.
For a further data set, the system named is Vero. Briefly: Cytotoxicity against African green monkey Vero cells by neutral red assay. The format is cell-based. The conditions noted are these: Chlorocebus sabaeus.
The nature of data set [6]: Selectivity index, ratio of IC50 for African green monkey Vero cells to IC50 for Plasmodium falciparum. Format: toxicity. The conditions noted are these: read-out: Ratio IC50.
Data set [7] deals with Plasmodium falciparum. Briefly: Antimalarial activity against Plasmodium falciparum using Malstat reagent by parasite lactate dehydrogenase assay. The format is functional, organism-based.
Data set [8] deals with Plasmodium falciparum. Briefly: Gametocytocidal activity against transgenic GFP-fused Plasmodium falciparum NF54 […] gametocytes after 72 hrs by Mitotracker Red CMH2XRos staining-based confocal microscopic method. Format: functional, organism-based. The conditions noted are these: NF54, 72 h.
The nature of data set [9]: Selectivity index, ratio of IC50 for human NFF cells to IC50 for asexual-stage of Plasmodium falciparum 3D7. The conditions noted are these: read-out: Ratio IC50. Format: toxicity.
The test system of a further data set is NFF. Briefly: Cytotoxicity against human NFF cells after 72 hrs by SRB assay. Format: cell-based. (In general: In SRB staining, fixed cells bind dye roughly in proportion to their protein.)
A short description of data set [10]: Selectivity index, ratio of IC50 for human NFF cells to IC50 for transgenic GFP-fused Plasmodium falciparum NF54 […] gametocyte. To be noted: read-out: Ratio IC50. Format: toxicity.
The subject of data set [11] is Plasmodium falciparum. Briefly: Antimalarial activity against asexual-stage of Plasmodium falciparum 3D7 after 24 hrs by microbeta scintillation counting-based [3H]-hypoxanthine incorporation assay. The format is functional, organism-based.

By inhibition is commonly meant the percentage by which the read-out fell short of the control. The IC50 is the concentration that inhibits the measured activity by half. For `C/C=C1\NC(=O)[C@H]2CSSCC/C=C/[C@H](CC(=O)N[C@H](C(C)C)C(=O)N2)OC(=O)[C@H](C(C)C)NC1=O` [ROMIDEPSIN], the selectivity ratio in [1], in [3], in data set [4] and in data set [5] was less than 1 each time. In addition, the inhibition in data set [2] was determined as 48%. This compound displayed an IC50 against Histone deacetylase of 0.0009 µM.
`Cn1cc(C(=O)Cc2ccccc2)cc1/C=C/C(=O)NO`: the concentration for half-maximal inhibition (IC50) in the data set with Vero is more than 20 µM; in the data set on Plasmodium falciparum [7], 1.2 to 4 µM. Further, the selectivity ratio in [6] lay within 5 to 17.
For the compound `CC(C)(C)c1ccc(NC(=O)NOCCCCCC(=O)NO)cc1`, the 50% inhibitory concentration (IC50) in the data set with Plasmodium falciparum [8] amounted to 3.45 µM; in the data set on NFF, 4.9 µM; with Plasmodium falciparum [11], 0.16 µM. Moreover, the values for the selectivity ratio in data set [9] and in data set [10] were 31 and 2, respectively.
